# Source: patent US20240067625A1, “SMALL-MOLECULE MODULATORS OF THE ORPHAN NUCLEAR RECEPTOR TLX” (priority 2020, published 2024)
# Molecular target: TLX LBD (Homo sapiens (Human), UniProt Q9Y466)
# Experiment: ALPHA screen assay for TLX LBD and coactivator peptide recruitment
# Type: biochemical
# Details: Table 3; for Average ALPHA signal at 200 μM (std. dev.): mean (std. dev.)
# Experimental: Assays were performed according to the manufacturer's protocol (PerkinElmer, USA), with the following modifications: Ligands were tested for TLX-coactivator binding in 50 mM phosphate buffer, 150 mM NaCl, pH 7, 1 mM DTT and 100 μM CHAPS. Ligands were dissolved and diluted in DMSO as stocks and were prepared in assay buffer from the original stock in the 100% DMSO and added to the assay plate. Biotinylated SRC peptide and polyhistidine tagged TLX LBD were diluted in assay buffer, subsequently added to respective ALPHA beads, under low light. The plates were spun down, mixed with a shaker and incubated for 120 minutes and read on a TECAN Plate reader using the manufacturer's protocol.
# Chain of TLX LBD (Q9Y466 155-383): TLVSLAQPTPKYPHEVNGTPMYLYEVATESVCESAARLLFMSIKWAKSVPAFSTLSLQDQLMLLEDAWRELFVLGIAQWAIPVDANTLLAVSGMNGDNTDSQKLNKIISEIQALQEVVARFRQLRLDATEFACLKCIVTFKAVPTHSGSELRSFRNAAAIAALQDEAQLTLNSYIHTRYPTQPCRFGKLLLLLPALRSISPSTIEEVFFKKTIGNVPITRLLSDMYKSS
Compound,Average ALPHA signal at 200 μM (std. dev.),EC50 [nM]
CC(C)Nc1ncccc1C(=O)N1CCN(Cc2ccccc2)[C@H](C)C1 [Compound 85],1.48 (0.16),
CC(C)CCNc1ncccc1C(=O)N1CCN(Cc2ccccc2)[C@@H](C)[C@@H]1CC(=O)O [Compound 78],1.16 (0.03),
Cc1ccccc1CN1CCN(C(=O)c2cccnc2NCCC(C)C)[C@H](C)C1 [Compound 43],3.49 (0.17),
CC(C)CCNc1ncccc1C(=O)N1CCN(CCCc2ccccc2)C[C@@H]1C [Compound 35],4.57 (0.38),0.0128
CC(C)CCNc1ncccc1C(=O)N1CCN(Cc2ccccn2)C[C@@H]1C [Compound 34],1.29 (0.05),
CC(C)CCNc1ncccc1C(=O)N1CCN(Cc2ccc3cnccc3c2)C[C@@H]1C [Compound 40],2.48 (0.02),0.0529
COC(=O)c1cccc(CN2CCN(C(=O)c3cccnc3NCCC(C)C)CC2)c1 [Compound 56],2.74 (0.08),0.0442
COC(=O)C[C@@H]1CN(C(=O)c2cccnc2NCCC(C)C)C[C@@H](C)N1Cc1ccccc1 [Compound 64],2.26 (0.07),0.00858
COC(=O)C[C@@H]1CN(Cc2ccccc2)[C@@H](C)CN1C(=O)c1cccnc1NCCC(C)C [Compound 74],2.96 (0.08),0.00982
CC(C)CCNc1ncccc1C(=O)N1CCN(CCCc2ccccc2)C[C@H]1C [Compound 48],3.75 (0.31),
COC(=O)C[C@@H]1[C@@H](C)N(Cc2ccccc2)CCN1C(=O)c1cccnc1NCCC(C)C [Compound 72],2.51 (0.10),
COc1cccc(CN2CCN(C(=O)c3cccnc3NCCC(C)C)[C@H](C)C2)c1 [Compound 51],2.98 (0.10),0.0199
COC(=O)C[C@H]1CN(C(=O)c2cccnc2NCCC(C)C)C[C@@H](C)N1Cc1ccccc1 [Compound 63],2.72 (0.05),0.0123
CNc1ncccc1C(=O)N1CCN(Cc2ccccc2)[C@H](C)C1 [Compound 88],2.17 (0.21),
CC(C)CCNc1ncccc1C(=O)N1C[C@@H](C)N(Cc2ccccc2)C[C@H]1CC(=O)O [Compound 83],1.02 (0.03),
CC(C)CCNc1ncccc1C(=O)N1CCN(Cc2ccccc2)C[C@@H]1CC(C)C [Compound 94],3.65 (0.10),0.003
COc1cccc(CN2CCN(C(=O)c3cccnc3NCCC(C)C)[C@@H](C)C2)c1 [Compound 39],3.19 (0.17),0.0276
COC(=O)C[C@@H]1[C@H](C)N(Cc2ccccc2)CCN1C(=O)c1cccnc1NCCC(C)C [Compound 69],2.53 (0.08),0.0081
COC(=O)C[C@H]1[C@H](C)N(Cc2ccccc2)CCN1C(=O)c1cccnc1NCCC(C)C [Compound 70],2.63 (0.01),0.00485
COC(=O)c1ccccc1CN1CCN(C(=O)c2cccnc2NCCC(C)C)CC1 [Compound 55],2.87 (0.07),0.0412
Cc1cccc(CN2CCN(C(=O)c3cccnc3NCCC(C)C)[C@H](C)C2)c1 [Compound 44],3.28 (0.09),0.0124

Compound,Average ALPHA signal at 200 μM (std. dev.),EC50 [nM]
Cc1ccc(CN2CCN(C(=O)c3cccnc3NCCC(C)C)[C@@H](C)C2)cc1 [Compound 33],3.89 (0.21),0.0187
CC(C)CCNc1ncccc1C(=O)N1CCN(Cc2ccccc2)[C@H](C)[C@H]1CC(=O)O [Compound 80],1.11 (0.07),
CC(C)CCNc1ncccc1C(=O)N1CCN(Cc2cccc(C(=O)O)c2)CC1 [Compound 59],1.25 (0.09),
COC(=O)C[C@@H]1CN(Cc2ccccc2)[C@H](C)CN1C(=O)c1cccnc1NCCC(C)C [Compound 75],2.65 (0.04),0.00794
CC(C)CCNc1ncccc1C(=O)N1CCN(Cc2ccccn2)C[C@H]1C [Compound 46],0.86 (0.09),
CC(C)Nc1ncccc1C(=O)N1CCN(Cc2ccccc2)[C@@H](C)C1 [Compound 90],1.57 (0.06),
CC(C)CCNc1ncccc1C(=O)N1CCN(CCC2CCN(C(=O)OC(C)(C)C)CC2)C[C@H]1C [Compound 53],2.84 (0.05),0.00904
COC(=O)C[C@H]1[C@@H](C)N(Cc2ccccc2)CCN1C(=O)c1cccnc1NCCC(C)C [Compound 71],2.47 (0.03),
CC(C)CCNc1ncccc1C(=O)N1C[C@@H](CC(=O)O)N(Cc2ccccc2)[C@H](C)C1 [Compound 68],1.02 (0.03),
CC(C)CCNc1ncccc1C(=O)N1CCN(CCC2CCN(C(=O)OC(C)(C)C)CC2)C[C@@H]1C [Compound 41],2.73 (0.13),0.00585
CCCCCCN1CCN(C(=O)c2cccnc2NCCC(C)C)[C@@H](C)C1 [Compound 36],8.78 (0.30),0.0126
COC(=O)C[C@@H]1CN(C(=O)c2cccnc2NCCC(C)C)C[C@H](C)N1Cc1ccccc1 [Compound 61],2.89 (0.07),0.0152
C[C@H]1CN(C(=O)c2cccnc2NC2CC2)CCN1Cc1ccccc1 [Compound 91],1.48 (0.04),
CC(C)CCNc1ncccc1C(=O)N1C[C@H](CC(=O)O)N(Cc2ccccc2)[C@H](C)C1 [Compound 67],0.97 (0.03),
"Cc1cc(C(=O)N2CCN(C(c3ccccc3)c3ccccc3)CC2)nn1C [Compound 30, reference compound]",1.93 (0.08),0.0673
CC(C)CCNc1ncccc1C(=O)N1CCN(C)C[C@@H]1C [Compound 38],0.85 (0.06),
CC(C)CCNc1ncccc1C(=O)N1CCN(Cc2ccc(C(=O)O)cc2)CC1 [Compound 60],1.06 (0.05),
CNc1ncccc1C(=O)N1CCN(Cc2ccccc2)[C@@H](C)C1 [Compound 92],1.85 (0.10),
CCCCN1CCN(C(=O)c2cccnc2NCCC(C)C)[C@@H](C)C1 [Compound 37],2.30 (0.02),0.0335
CCCCCCN1CCN(C(=O)c2cccnc2NCCC(C)C)[C@H](C)C1 [Compound 47],7.81 (0.45),0.0125
CC(C)CCNc1ncccc1C(=O)N1C[C@H](C)N(Cc2ccccc2)C[C@H]1CC(=O)O [Compound 82],1.11 (0.02),

Compound,Average ALPHA signal at 200 μM (std. dev.),EC50 [nM]
CC(C)CCNc1ncccc1C(=O)N1CCN(Cc2c[nH]c3ccccc23)C[C@H]1C [Compound 54],1.17 (0.06),
Cc1ccccc1CN1CCN(C(=O)c2cccnc2NCCC(C)C)[C@@H](C)C1 [Compound 31],4.52 (0.06),0.0138
CC(C)CCNc1ncccc1C(=O)N1CCN(Cc2ccc3cnccc3c2)C[C@H]1C [Compound 52],2.03 (0.12),0.0261
CC(C)CCNc1ncccc1C(=O)N1C[C@H](C)N(Cc2ccccc2)C[C@@H]1CC(=O)O [Compound 81],1.15 (0.02),
CC(C)CNc1ncccc1C(=O)N1CCN(Cc2ccccc2)[C@H](C)C1 [Compound 87],2.07 (0.03),
COC(=O)c1ccc(CN2CCN(C(=O)c3cccnc3NCCC(C)C)CC2)cc1 [Compound 57],2.54 (0.04),0.0745
Cc1ccc(CN2CCN(C(=O)c3cccnc3NCCC(C)C)[C@H](C)C2)cc1 [Compound 45],3.50 (0.06),0.0113
C[C@@H]1CN(C(=O)c2cccnc2NC2CC2)CCN1Cc1ccccc1 [Compound 86],1.35 (0.04),
CC(C)CCNc1ncccc1C(=O)N1CCN(C)C[C@H]1C [Compound 50],0.93 (0.05),
COC(=O)C[C@H]1CN(Cc2ccccc2)[C@@H](C)CN1C(=O)c1cccnc1NCCC(C)C [Compound 73],2.69 (0.07),
CC(C)CNc1ncccc1C(=O)N1CCN(Cc2ccccc2)[C@@H](C)C1 [Compound 89],1.98 (0.05),
CC(C)CCNc1ncccc1C(=O)N1CCN(Cc2ccccc2C(=O)O)CC1 [Compound 58],1.30 (0.05),
COC(=O)C[C@H]1CN(Cc2ccccc2)[C@H](C)CN1C(=O)c1cccnc1NCCC(C)C [Compound 76],3.09 (0.18),0.0126
CC(C)CCNc1ncccc1C(=O)N1C[C@@H](CC(=O)O)N(Cc2ccccc2)[C@@H](C)C1 [Compound 65],0.99 (0.04),
CC(C)CCNc1ncccc1C(=O)N1CCN(Cc2ccccc2)[C@H](C)[C@@H]1CC(=O)O [Compound 79],1.23 (0.02),
CC(C)CCNc1ncccc1C(=O)N1C[C@H](CC(=O)O)N(Cc2ccccc2)[C@@H](C)C1 [Compound 66],0.96 (0.03),
CC(C)CCNc1ncccc1C(=O)N1C[C@@H](C)N(Cc2ccccc2)C[C@@H]1CC(=O)O [Compound 84],1.09 (0.01),
COC(=O)C[C@H]1CN(C(=O)c2cccnc2NCCC(C)C)C[C@H](C)N1Cc1ccccc1 [Compound 62],2.54 (0.08),0.012
CC(C)CCNc1ncccc1C(=O)N1CCN(Cc2c[nH]c3ccccc23)C[C@@H]1C [Compound 42],0.96 (0.05),
